From patent US20240026339A1, “COMPOSITION AND THE USE OF CELL LYSIS REAGENTS” (Vilnius University, priority 2022, published 2024)
“And” between values parts separate entries of the source, which are not always exact repeats. Equal values may be shown once. Where a name gives a salt, the structure may show the parent alone.

Tested on: K-562 cells
Assay: Cell lysis efficiency and cDNA yield in bulk (lysis and RT in one mix, PCR, BioAnalyzer/Qubit)
Type: cell-based
Details: cDNA yield divided by cDNA yield with 0.1% NP40 of the same Part
Description: The cells, lysis reagents and reverse transcription reagents are mixed together to create one reaction mix. The mRNA released from the lysed cells is reverse transcribed using oligonucleotides into a copy DNA (cDNA). The resulting cDNA is then purified using AMPure purification kit, PCR-amplified and analysed by capillary electrophoresis (BioAnalyzer). The DNA amount is also evaluated by fluorometer (Qubit) and the cDNA yields between different lysis conditions is compared to the reference (0.1% NP40).
The detailed composition and reaction conditions are provided below. Briefly, cell lysis and RT reaction were carried out in bulk with MCF7 and K562 cells. Samples containing 0.02%-0.6% of different cell lysis reagent were evaluated. After the RT reaction, cDNA was pass through a column to remove cell debris and gDNA, purified with 1.2× AMPure, eluted in 20 μl water, amplified by 12-cycles of PCR, purified reaction product with 1.2× AMPure and analyzed on BioAnalyzer chip.
Different sets of detergents were prepared in DEPC-water. Each set was tested separately. The cDNA yield for each detergent was compared to the cDNA yield obtained with 0.1% NP40 final concentration.
4. Setting Up RT Reaction: • 1. […] The final volume of reaction was 40 uL. • 4. RT reaction was carried out at 50° C. for 60 min followed by inactivation at 85° C. for 5 min. • 5. After RT reaction samples were immediately processed further by passing them through Zymo column for 1 min at 10000 g. • 6. The flow through fraction was cleaned up with 1.2× AMPure beads and eluted in 20 μL of water and processed further.
5. cDNA Amplification: • 7. cDNA amplification mix was prepared as follows:
• 8. 12 μL of cDNA amplification mix were mixed with 8 μL of purified cDNA material resulting in a total of 20 μL solution. • 9. Each sample was transferred to thermocycler and PCR program was started:
• 10. Amplified cDNA was cleaned up with 1.2× AMPure beads and eluted to 20 μL of water. • 11. DNA concentration of each sample was measured with Qubit. Samples were frozen only after cDNA amplification if needed). • 12. Calculate the dilution factor needed to reach 1 ng/uL for 0.1% NP40 sample, which is used as a reference. • 13. Load 1 μL of each sample (diluted as much times as 0.1% NP40 sample) on BioAnalyzer (BioA) HS DNA kit/chip and calculate the cDNA yield (ng/μl).
The “Relative lysis efficiency” was estimated by first quantifying the cDNA yield (ng/μl) obtained at a given lysis condition and then dividing the said cDNA yield by the cDNA yield obtained when using 0.1% NP40.

Compound | Relative lysis efficiency (single detergent at 0.02%) | Relative lysis efficiency (single detergent at 0.1%) | Relative lysis efficiency (single detergent at 0.2%) | Relative lysis efficiency (single detergent at 0.4%) | Relative lysis efficiency (single detergent at 0.6%) | Relative lysis efficiency (single detergent at 0.3%)
C[C@H](CCC(=O)NCCC[N+](C)(C)CCCS(=O)(=O)[O-])[C@H]1CC[C@H]2[C@@H]3[C@H](O)C[C@@H]4C[C@H](O)CC[C@]4(C)[C@H]3C[C@H](O)[C@]12C [CHAPS] | 0.43 | 0.43 |  |  |  | 
C[C@H](CCC(=O)O)[C@H]1CC[C@H]2[C@@H]3CC[C@@H]4C[C@H](O)CC[C@]4(C)[C@H]3C[C@H](O)[C@]12C [Deoxycholic acid Na salt] | 0.51 | 0.24 |  |  |  | 
C[C@@H]1CC[C@@]2(OC1)O[C@H]1[C@@H](O)[C@H]3[C@@H]4CC[C@H]5C[C@@H](O[C@@H]6O[C@H](CO)[C@H](O[C@@H]7O[C@H](CO)[C@@H](O)[C@H](O[C@@H]8OC[C@@H](O)[C@H](O)[C@H]8O)[C@H]7O[C@@H]7O[C@H](CO)[C@H](O)[C@H](O[C@@H]8O[C@H](CO)[C@@H](O)[C@H](O)[C@H]8O)[C@H]7O)[C@H](O)[C@H]6O)[C@H](O)C[C@]5(C)[C@H]4CC[C@]3(C)[C@H]1[C@@H]2C [Digitonin] | 0.85 | 0.85 |  |  |  | 
CCCCCCCCCc1ccc(OCCOCCOCCOCCOCCOCCOCCOCCOCCO)cc1 [Igepal CO630] |  | 0.98 |  |  |  | 
CCCCCCCCCCCCN(C)CC(=O)O [N-Laurylsarcosine] | 0.41 | 0.35 |  |  |  | 
CCCCCCCCO[C@@H]1O[C@H](CO)[C@@H](O)[C@H](O)[C@H]1O [n-octyl-β-D-glucopyranoside (OBG), n-octyl-β-D-glucopyranoside] | 0.36 | 0.36 |  |  |  | 
CCCCCCCCS[C@@H]1O[C@H](CO)[C@@H](O)[C@H](O)[C@H]1O [n-octyl-β-D-thioglucopyranoside (OTG), n-octyl-β-D-thioglucopyranoside] | 0.37 | 0.31 |  |  |  | 
(1-dodecyl) trimethylamonium bromide | 0.88 | 0.25 |  |  |  | 
NP40 |  | 1.00 | 1.01 | 0.98 | 1.18 | 
Tergitol NP40 |  | 0.63 |  |  |  | 
Triton X-100 |  | 0.78 |  |  |  | 
Tween 20 |  | 0.98 and 0.99 | 0.99 | 0.99 | 1.02 | 0.99
Tween 60 |  | 0.65 |  |  |  | 
Tween 80 |  | 0.50 and 0.73 | 0.69 | 0.71 | 0.70 | 0.72
